Measured values taken from US8796470B2 (AbbVie Inc., priority 2010, dated 2014).

Molecular target: T1, human Cav2.2 (Homo sapiens, UniProt Q00975)
T1 construct: IMR32 cells endogenously expressing human Cav2.2; endogenous in cells; host or cells: IMR32 cells (human neuroblastoma)
Assay: Assessment of calcium channel activity using FLIPR (Ca2+ influx in IMR32 cells)
Type: cell-based
Conditions: IMR32 cells endogenously expressing human Cav2.2, Calcium 4 dye, 60 minute pre-incubation, 2 μM nifedipine, depolarized with 80 mM KCl, 5 mM CaCl2
Experimental: (i) In Vitro Methods—Assessment of Calcium Channel Activity Using FLIPR:
IMR32 cells endogenously expressing human Cav2.2 were assayed for Ca^2+ influx using a no-wash calcium indicator dye (Calcium 4 dye: Molecular Probes) and FLIPR technology (Lubin, M. L.; Reitz, T. L.; Todd, M. J.; Flores, C. M.; Qin, N.; Xin, H. Assay and Drug Development Technologies 2006, 4(6), 689-694.). The IMR32 cells were maintained in MEM media containing 10% (v/v) FBS, 1% (v/v) antibiotic/antimitotic, 1% (v/v) sodium pyruvate and 1% (v/v) MEM NEAA. Following dissociation in 0.05% (v/v) trypsin/EDTA, cells were seeded into black 1×96-well plates (Corning Cellbind) at a density of 1−1.2×10^5 cells/well and incubated in the maintenance media above for 48 hours at 37° C. Immediately prior to performing the assay the media was removed and cells were loaded for 1.5 hours with 1×Calcium 4 dye prepared in HBSS (137 mM NaCl, 5.4 mM KCl, 0.25 mM Na2HPO4, 0.44 mM KH2PO4, 1.3 mM CaCl2, 1 mM MgSO4, 4.2 mM NaHCO3) containing HEPES pH 7.4 at room temperature. After dye loading and a subsequent 60 minute pre-incubation with compounds (full log dilutions from 10 μM to 0.1 nM) in the presence of 1.3 mM CaCl2 and 2 μM nifedipine to block endogenous L-type channels, the external Ca^2+ concentration was increased to 5 mM CaCl2 and the cells concomitantly depolarized with 80 mM KCl to assay channel activity. To determine the IC50 values, the percent inhibition of the compound at each concentration was determined relative to the activity in the absence of inhibitor, and data was fitted using non-linear regression sigmoidal dose response curve analysis with GraphPad Prism®.

T1 sequence (Q00975 whole entry): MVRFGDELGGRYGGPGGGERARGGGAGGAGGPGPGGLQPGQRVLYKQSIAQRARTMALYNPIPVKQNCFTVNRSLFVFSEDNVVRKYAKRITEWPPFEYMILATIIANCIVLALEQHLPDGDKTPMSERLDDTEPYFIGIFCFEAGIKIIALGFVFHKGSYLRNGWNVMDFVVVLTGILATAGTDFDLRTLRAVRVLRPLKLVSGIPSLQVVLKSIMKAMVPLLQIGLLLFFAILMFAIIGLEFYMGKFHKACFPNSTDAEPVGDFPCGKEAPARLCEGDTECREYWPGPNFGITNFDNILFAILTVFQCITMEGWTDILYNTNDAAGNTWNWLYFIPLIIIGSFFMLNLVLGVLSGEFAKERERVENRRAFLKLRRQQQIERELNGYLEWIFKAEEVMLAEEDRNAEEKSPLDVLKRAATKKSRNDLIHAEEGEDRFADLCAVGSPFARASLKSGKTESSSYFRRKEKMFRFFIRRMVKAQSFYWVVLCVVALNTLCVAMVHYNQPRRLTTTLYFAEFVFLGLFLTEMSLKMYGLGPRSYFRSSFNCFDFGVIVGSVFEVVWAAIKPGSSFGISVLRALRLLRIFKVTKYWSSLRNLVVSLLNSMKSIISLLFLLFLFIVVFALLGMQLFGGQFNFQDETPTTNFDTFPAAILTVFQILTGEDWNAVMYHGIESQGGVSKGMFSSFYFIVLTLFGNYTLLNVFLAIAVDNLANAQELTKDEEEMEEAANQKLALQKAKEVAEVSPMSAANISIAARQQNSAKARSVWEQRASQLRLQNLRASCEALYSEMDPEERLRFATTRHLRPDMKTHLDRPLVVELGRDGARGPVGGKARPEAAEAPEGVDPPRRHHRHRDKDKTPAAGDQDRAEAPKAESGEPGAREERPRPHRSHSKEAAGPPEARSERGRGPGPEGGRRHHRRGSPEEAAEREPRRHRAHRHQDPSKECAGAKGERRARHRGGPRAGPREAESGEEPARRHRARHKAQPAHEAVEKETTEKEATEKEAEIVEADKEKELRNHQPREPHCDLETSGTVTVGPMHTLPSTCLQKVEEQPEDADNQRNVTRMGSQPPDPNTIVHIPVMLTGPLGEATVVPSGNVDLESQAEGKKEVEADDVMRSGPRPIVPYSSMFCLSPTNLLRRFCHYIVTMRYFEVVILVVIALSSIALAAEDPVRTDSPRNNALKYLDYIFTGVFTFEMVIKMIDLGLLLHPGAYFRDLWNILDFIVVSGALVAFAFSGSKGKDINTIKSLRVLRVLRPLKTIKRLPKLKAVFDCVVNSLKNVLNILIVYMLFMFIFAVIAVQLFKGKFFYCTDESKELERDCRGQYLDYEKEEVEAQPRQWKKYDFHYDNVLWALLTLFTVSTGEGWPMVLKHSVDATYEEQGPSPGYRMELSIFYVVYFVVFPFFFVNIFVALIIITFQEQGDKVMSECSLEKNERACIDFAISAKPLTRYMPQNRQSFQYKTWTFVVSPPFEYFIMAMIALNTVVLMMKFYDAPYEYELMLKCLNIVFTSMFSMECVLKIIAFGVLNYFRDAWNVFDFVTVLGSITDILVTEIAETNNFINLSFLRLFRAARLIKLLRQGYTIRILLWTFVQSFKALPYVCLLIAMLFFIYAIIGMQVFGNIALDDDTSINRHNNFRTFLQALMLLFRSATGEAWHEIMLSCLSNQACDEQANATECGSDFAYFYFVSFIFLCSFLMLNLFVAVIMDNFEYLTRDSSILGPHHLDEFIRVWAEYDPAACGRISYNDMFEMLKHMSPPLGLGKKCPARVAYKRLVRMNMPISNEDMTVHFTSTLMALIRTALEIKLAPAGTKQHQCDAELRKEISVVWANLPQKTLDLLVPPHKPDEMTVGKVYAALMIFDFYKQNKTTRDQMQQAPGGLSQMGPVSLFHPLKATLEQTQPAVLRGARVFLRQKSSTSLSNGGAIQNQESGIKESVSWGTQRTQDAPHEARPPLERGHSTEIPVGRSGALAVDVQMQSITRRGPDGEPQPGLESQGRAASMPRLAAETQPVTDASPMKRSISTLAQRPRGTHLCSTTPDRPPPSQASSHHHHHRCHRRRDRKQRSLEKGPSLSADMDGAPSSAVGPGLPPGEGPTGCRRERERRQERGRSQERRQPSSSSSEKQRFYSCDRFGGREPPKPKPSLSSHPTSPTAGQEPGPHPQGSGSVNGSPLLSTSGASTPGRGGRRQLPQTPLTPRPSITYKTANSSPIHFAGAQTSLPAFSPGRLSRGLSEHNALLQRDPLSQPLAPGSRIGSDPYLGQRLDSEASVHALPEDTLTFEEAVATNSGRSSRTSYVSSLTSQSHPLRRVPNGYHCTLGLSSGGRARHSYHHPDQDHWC
T1 sequence (P54289 25-956 partner limits assumed): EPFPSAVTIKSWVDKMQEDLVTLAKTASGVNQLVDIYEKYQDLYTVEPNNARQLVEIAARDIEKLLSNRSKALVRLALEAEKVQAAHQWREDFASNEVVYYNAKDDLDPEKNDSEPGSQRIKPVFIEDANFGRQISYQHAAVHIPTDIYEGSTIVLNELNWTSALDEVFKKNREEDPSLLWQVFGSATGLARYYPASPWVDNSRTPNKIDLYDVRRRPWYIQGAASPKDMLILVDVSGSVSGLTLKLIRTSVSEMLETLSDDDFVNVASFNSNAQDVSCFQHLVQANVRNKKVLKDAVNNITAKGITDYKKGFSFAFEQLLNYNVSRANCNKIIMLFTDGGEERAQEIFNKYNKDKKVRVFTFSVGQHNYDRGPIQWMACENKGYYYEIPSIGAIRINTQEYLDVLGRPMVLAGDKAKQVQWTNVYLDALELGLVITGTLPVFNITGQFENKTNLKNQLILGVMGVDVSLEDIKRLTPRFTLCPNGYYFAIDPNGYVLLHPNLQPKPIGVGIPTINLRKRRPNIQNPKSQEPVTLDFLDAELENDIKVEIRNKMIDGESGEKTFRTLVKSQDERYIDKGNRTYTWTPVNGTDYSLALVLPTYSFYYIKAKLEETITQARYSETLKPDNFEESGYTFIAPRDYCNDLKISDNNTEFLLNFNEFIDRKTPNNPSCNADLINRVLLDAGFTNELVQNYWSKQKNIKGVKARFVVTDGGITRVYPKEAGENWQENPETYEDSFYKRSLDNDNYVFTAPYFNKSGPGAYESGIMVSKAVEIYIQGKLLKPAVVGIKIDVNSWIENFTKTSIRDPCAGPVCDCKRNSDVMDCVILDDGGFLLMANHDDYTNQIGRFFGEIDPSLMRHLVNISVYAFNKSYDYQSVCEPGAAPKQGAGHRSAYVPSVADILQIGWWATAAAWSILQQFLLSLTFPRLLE
T1 sequence (P54289 957-1103 partner limits assumed): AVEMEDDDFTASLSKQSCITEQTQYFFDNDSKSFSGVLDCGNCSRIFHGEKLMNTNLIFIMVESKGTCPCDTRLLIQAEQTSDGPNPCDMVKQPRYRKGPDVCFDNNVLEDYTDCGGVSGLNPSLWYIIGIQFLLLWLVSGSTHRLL
T1 sequence (P54284 whole entry partner): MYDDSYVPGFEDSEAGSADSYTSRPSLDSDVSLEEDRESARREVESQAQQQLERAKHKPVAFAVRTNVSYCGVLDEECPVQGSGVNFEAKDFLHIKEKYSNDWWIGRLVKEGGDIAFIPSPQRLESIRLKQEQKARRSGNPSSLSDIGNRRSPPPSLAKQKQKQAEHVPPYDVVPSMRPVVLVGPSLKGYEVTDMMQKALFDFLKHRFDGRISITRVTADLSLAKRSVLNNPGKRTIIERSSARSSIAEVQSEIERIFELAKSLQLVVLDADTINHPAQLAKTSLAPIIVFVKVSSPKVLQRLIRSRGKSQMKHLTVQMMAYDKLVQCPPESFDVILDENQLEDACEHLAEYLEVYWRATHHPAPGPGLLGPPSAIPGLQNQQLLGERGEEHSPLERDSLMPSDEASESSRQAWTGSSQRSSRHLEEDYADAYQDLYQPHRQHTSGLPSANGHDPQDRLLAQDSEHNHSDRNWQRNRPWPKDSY

IC50 | SMILES
4.3 µM | FC(F)(F)c1cccc(N2C[C@H]3CC[C@H](n4ccnc4)[C@H]3C2)n1 [Example 50, (3aR,4S,6aS)-4-(1H-imidazol-1-yl)-2-[6-(trifluoromethyl)pyridin-2-yl]octahydrocyclopenta[c]pyrrole]
7.39 µM | FC(F)(F)c1cccc(N2C[C@H]3CC[C@H](n4cc(Cl)cn4)[C@H]3C2)n1 [Example 52, (3aR,4S,6aS)-4-(4-chloro-1H-pyrazol-1-yl)-2-[6-(trifluoromethyl)pyridin-2-yl]octahydrocyclopenta[c]pyrrole]
5.79 µM | FC(F)(F)c1cccc(N2C[C@H]3CC[C@H](n4cnc(-c5ccc(Cl)cc5)c4)[C@H]3C2)n1 [Example 57, (3aR,4S,6aS)-4-[4-(4-chlorophenyl)-1H-imidazol-1-yl]-2-[6-(trifluoromethyl)pyridin-2-yl]octahydrocyclopenta[c]pyrrole]
3.15 µM | FC(F)(F)c1cccc(N2C[C@H]3CC[C@H](n4cnc(-c5ccccc5)c4)[C@H]3C2)n1 [Example 58, (3aR,4S,6aS)-4-(4-phenyl-1H-imidazol-1-yl)-2-[6-(trifluoromethyl)pyridin-2-yl]octahydrocyclopenta[c]pyrrole]
1.96 µM | FC(F)(F)c1cccc(N2C[C@H]3CC[C@H](n4cnc5ccccc54)[C@H]3C2)n1 [Example 60, 1-{(3aR,4S,6aS)-2-[6-(trifluoromethyl)pyridin-2-yl]octahydrocyclopenta[c]pyrrol-4-yl}-1H-benzimidazole]
3.6 µM | Fc1cccc2ncn([C@H]3CC[C@@H]4CN(c5cccc(C(F)(F)F)n5)C[C@@H]43)c12 [Example 64, 7-fluoro-1-{(3aR,4S,6aS)-2-[6-(trifluoromethyl)pyridin-2-yl]octahydrocyclopenta[c]pyrrol-4-yl}-1H-benzimidazole]
4.33 µM | Cc1cn([C@H]2CC[C@@H]3CN(c4cccc(C(F)(F)F)n4)C[C@@H]32)cn1 [Example 67, (3aR,4S,6aS)-4-(4-methyl-1H-imidazol-1-yl)-2-[6-(trifluoromethyl)pyridin-2-yl]octahydrocyclopenta[c]pyrrole]

Continued, compound first:

SMILES | IC50
FC(F)(F)c1cccc(N2C[C@H]3CC[C@H](n4cccn4)[C@H]3C2)n1 [Example 51, (3aR,4S,6aS)-4-(1H-pyrazol-1-yl)-2-[6-(trifluoromethyl)pyridin-2-yl]octahydrocyclopenta[c]pyrrole] | 1.39 µM
FC(F)(F)c1cccc(N2C[C@H]3CC[C@H](OC[C@@H]4CCCN4)[C@H]3C2)n1 [Example 53, (3aR,4S,6aS)-4-[(2S)-pyrrolidin-2-ylmethoxy]-2-[6-(trifluoromethyl)pyridin-2-yl]octahydrocyclopenta[c]pyrrole] | 0.66 µM
CC(C)(C)OC(=O)N1C[C@H]2CC[C@H](C(=O)Nc3cccc(F)c3)[C@H]2C1 [Example 54] | 11.6 µM
O=C(Nc1cccc(F)c1)[C@H]1CC[C@@H]2CNC[C@@H]21 [Example 55, (3aS,4S,6aS)—N-(3-fluorophenyl)octahydrocyclopenta[c]pyrrole-4-carboxamide] | > 30 µM
O=C(Nc1cccc(F)c1)[C@H]1CC[C@@H]2CN(c3cccc(C(F)(F)F)n3)C[C@@H]21 [Example 56, (3aS,4S,6aS)—N-(3-fluorophenyl)-2-[6-(trifluoromethyl)pyridin-2-yl]octahydrocyclopenta[c]pyrrole-4-carboxamide] | 8.9 µM
Cc1nccn1[C@H]1CC[C@@H]2CN(c3cccc(C(F)(F)F)n3)C[C@@H]21 [Example 61, (3aR,4S,6aS)-4-(2-methyl-1H-imidazol-1-yl)-2-[6-(trifluoromethyl)pyridin-2-yl]octahydrocyclopenta[c]pyrrole] | 3.57 µM
FC(F)(F)c1cccc(N2C[C@H]3CC[C@H](n4ccnc4-c4ccccc4)[C@H]3C2)n1 [Example 62, (3aR,4S,6aS)-4-(2-phenyl-1H-imidazol-1-yl)-2-[6-(trifluoromethyl)pyridin-2-yl]octahydrocyclopenta[c]pyrrole] | 1.03 µM
Cc1cnn([C@H]2CC[C@@H]3CN(c4cccc(C(F)(F)F)n4)C[C@@H]32)c1 [Example 63, (3aR,4S,6aS)-4-(4-methyl-1H-pyrazol-1-yl)-2-[6-(trifluoromethyl)pyridin-2-yl]octahydrocyclopenta[c]pyrrole] | 2.78 µM
FC(F)(F)c1cccc(N2C[C@H]3CC[C@H](n4ncc5ccccc54)[C@H]3C2)n1 [Example 65, 1-{(3aR,4S,6aS)-2-[6-(trifluoromethyl)pyridin-2-yl]octahydrocyclopenta[c]pyrrol-4-yl}-1H-indazole] | 4.85 µM
Cc1ccn([C@H]2CC[C@@H]3CN(c4cccc(C(F)(F)F)n4)C[C@@H]32)n1 [Example 66, (3aR,4S,6aS)-4-(3-methyl-1H-pyrazol-1-yl)-2-[6-(trifluoromethyl)pyridin-2-yl]octahydrocyclopenta[c]pyrrole] | 5.74 µM
O[C@H]1[C@H]2CN(c3cccc(C(F)(F)F)n3)C[C@H]2C[C@H]1n1ccnc1 [Example 68, (3aR,4S,5R,6aS)-5-(1H-imidazol-1-yl)-2-[6-(trifluoromethyl)pyridin-2-yl]octahydrocyclopenta[c]pyrrol-4-ol] | 10.8 µM
O[C@H]1[C@H]2CN(c3cccc(C(F)(F)F)n3)C[C@H]2C[C@@H]1n1ccnc1 [Example 69, (3aR,4S,5S,6aS)-5-(1H-imidazol-1-yl)-2-[6-(trifluoromethyl)pyridin-2-yl]octahydrocyclopenta[c]pyrrol-4-ol] | 9.15 µM
C[C@]1(NC(=O)[C@@H]2C[C@@H](F)CN2)CC[C@@H]2CN(c3cccc(C(F)(F)F)n3)C[C@@H]21 [Example 70, (4R)-4-fluoro-N-{(3aR,4S,6aS)-4-methyl-2-[6-(trifluoromethyl)pyridin-2-yl]octahydrocyclopenta[c]pyrrol-4-yl}-L-prolinamide] | 3.09 µM
CN[C@@H](CC(C)C)C(=O)N[C@@]1(C)CC[C@@H]2CN(c3cccc(C(F)(F)F)n3)C[C@@H]21 [Example 71, N^2-methyl-N-{(3aR,4S,6aS)-4-methyl-2-[6-(trifluoromethyl)pyridin-2-yl]octahydrocyclopenta[c]pyrrol-4-yl}-L-leucinamide] | 0.78 µM
C[C@]1(NC(=O)CCC(F)(F)F)CC[C@@H]2CN(c3cccc(C(F)(F)F)n3)C[C@@H]21 [Example 72, 4,4,4-trifluoro-N-{(3aR,4S,6aS)-4-methyl-2-[6-(trifluoromethyl)pyridin-2-yl]octahydrocyclopenta[c]pyrrol-4-yl}butanamide] | 1.15 µM
